We go through five molecules from article PMC8372184 (Synlett : accounts and rapid communications in synthetic …, 2021).

The target of experiment [1] is T1, GetF (Streptomyces sp. L-49973, UniProt E0WFM0).
T1 sequence (E0WFM0 1-363): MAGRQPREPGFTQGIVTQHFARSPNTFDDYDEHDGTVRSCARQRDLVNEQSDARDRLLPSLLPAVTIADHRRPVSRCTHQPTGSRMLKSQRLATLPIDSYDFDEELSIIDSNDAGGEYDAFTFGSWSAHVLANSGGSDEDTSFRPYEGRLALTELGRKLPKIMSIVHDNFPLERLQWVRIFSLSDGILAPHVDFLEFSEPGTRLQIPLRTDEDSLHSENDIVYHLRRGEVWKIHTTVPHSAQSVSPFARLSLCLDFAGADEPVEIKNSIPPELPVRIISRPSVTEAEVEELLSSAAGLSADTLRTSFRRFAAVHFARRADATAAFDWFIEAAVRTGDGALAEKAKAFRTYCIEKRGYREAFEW
Briefly: C3 hydroxylation, product isolated after Boc protection. The settings on record: alpha-ketoglutarate, Fe(II). The experiment is classed as cell-based.

A further experiment deals with T2, GriE (Streptomyces muensis, UniProt A0A0E3URV8).
T2 sequence (A0A0E3URV8 1-270): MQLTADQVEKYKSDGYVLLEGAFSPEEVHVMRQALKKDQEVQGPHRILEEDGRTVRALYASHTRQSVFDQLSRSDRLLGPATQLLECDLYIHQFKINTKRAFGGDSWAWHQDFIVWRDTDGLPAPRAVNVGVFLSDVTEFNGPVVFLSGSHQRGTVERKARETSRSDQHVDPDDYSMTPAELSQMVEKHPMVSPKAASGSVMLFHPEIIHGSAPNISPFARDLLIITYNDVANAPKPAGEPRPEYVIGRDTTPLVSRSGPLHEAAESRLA
Nature of the experiment: LCMS of C5 hydroxylation. The format is biochemical. The conditions noted are these: alpha-ketoglutarate, Fe(II), ascorbate.

Experiment [2] has as its target T1, GetF. Briefly: preparative-scale hydroxylation. The experiment is classed as cell-based. The conditions noted are these: alpha-ketoglutarate, Fe(II).
A further experiment deals with T3, GlbB (Caldimonas brevitalea, UniProt A8KCI8).
T3 sequence (A8KCI8 1-286): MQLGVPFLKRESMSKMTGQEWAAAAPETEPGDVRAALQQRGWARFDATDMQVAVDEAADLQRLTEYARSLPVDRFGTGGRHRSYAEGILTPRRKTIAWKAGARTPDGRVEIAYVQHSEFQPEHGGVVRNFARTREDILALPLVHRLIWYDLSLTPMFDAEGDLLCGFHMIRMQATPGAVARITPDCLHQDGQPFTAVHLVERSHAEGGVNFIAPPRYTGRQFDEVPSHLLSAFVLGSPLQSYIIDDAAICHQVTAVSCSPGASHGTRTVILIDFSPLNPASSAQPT
Briefly: 4-hydroxylation. The settings on record: alpha-ketoglutarate, Fe(II). The experiment is classed as biochemical.

A further experiment deals with T4, KDO1 (Catenulispora acidiphila, UniProt C7QJ42).
T4 sequence (C7QJ42 1-358): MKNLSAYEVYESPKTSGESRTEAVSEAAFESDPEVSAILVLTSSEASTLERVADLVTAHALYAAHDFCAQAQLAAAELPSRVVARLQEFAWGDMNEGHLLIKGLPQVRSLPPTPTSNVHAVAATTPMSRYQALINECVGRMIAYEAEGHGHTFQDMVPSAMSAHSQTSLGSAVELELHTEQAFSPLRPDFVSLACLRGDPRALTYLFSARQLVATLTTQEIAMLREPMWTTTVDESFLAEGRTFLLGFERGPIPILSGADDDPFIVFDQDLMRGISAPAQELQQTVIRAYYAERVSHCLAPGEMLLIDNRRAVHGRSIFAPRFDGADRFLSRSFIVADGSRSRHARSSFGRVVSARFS
Briefly: gram-scale 3-hydroxylation in E. coli lysate. The experiment is classed as biochemical. The settings on record: alpha-ketoglutarate, Fe(II).

Another experiment has as its target T5, GetI (Streptomyces sp. L-49973, UniProt E0WFM2).
T5 sequence (E0WFM2 1-345): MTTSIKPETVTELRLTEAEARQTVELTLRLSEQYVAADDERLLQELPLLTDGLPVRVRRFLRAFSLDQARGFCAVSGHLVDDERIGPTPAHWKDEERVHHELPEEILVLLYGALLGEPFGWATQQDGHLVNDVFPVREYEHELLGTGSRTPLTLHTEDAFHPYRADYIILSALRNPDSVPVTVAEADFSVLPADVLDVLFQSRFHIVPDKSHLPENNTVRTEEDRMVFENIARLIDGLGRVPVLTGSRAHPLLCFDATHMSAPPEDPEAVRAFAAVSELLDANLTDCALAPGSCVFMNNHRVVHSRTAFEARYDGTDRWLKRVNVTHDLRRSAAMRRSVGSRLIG
Briefly: preparative-scale 4-hydroxylation. The experiment is classed as cell-based. The settings on record: alpha-ketoglutarate, Fe(II).

`C[C@H]1CCN[C@@H]1C(=O)O` [compound 15, proline derivative 15]: the “C3 hydroxylation, product isolated after Boc protection” value at GetF [1] is on record as “The final C3 hydroxylation was performed with GetF”.

As for `CC(C)C[C@H](N)C(=O)O` [L-leucine], at GriE, the “LCMS of C5 hydroxylation” value is reported as “GriE revealed a highly active enzyme that is capable of hydroxylating L-leucine”.

With `O=C(O)[C@@H]1CCCCN1` [L-Pip], the preparative-scale hydroxylation result on GetF [2] was “Biocatalytic hydroxylation of L-Pip and L-Cit was performed on preparative scale with GetF and GetI”.

Take `NCCCC[C@H](N)C(=O)O` [L-lysine]: the 4-hydroxylation result on GlbB is on record as “GlbB was shown to be a highly efficient enzyme capable of hydroxylating L-lysine”. At KDO1, the “gram-scale 3-hydroxylation in E. coli lysate” value is reported as “optimizing the biocatalytic hydroxylation with lysates of E. coli expressing KDO1”.

Take `NC(=O)NCCC[C@H](N)C(=O)O` [L-Cit]: the “preparative-scale 4-hydroxylation” value on GetI is “Biocatalytic hydroxylation of L-Pip and L-Cit was performed on preparative scale with GetF and GetI”.
